According to BigSolDB 2.1:

solubility (mole fraction) (in ethanol, 288.15 K)	solubility (mole fraction) (in ethanol, 298.15 K)	solubility (mole fraction) (in ethanol, 308.15 K)	solubility (mole fraction) (in ethanol, 318.15 K)	solubility (mole fraction) (in isopropanol, 288.15 K)	solubility (mole fraction) (in isopropanol, 298.15 K)	solubility (mole fraction) (in isopropanol, 308.15 K)	solubility (mole fraction) (in isopropanol, 318.15 K)	solubility (mole fraction) (in n-propanol, 288.15 K)	solubility (mole fraction) (in n-propanol, 298.15 K)	solubility (mole fraction) (in n-propanol, 308.15 K)	solubility (mole fraction) (in n-propanol, 318.15 K)	Structure (SMILES)
0.123	0.163	0.201	0.257	0.157	0.182	0.239	0.282	0.127	0.174	0.214	0.251	CCOC(=O)c1ccc(O)cc1
0.287	0.361	0.433	0.524	0.293	0.339	0.415	0.512	0.289	0.352	0.448	0.522	CCCCOC(=O)c1ccc(O)cc1
